The data set in a line: activity coefficient (dimensionless); of the first substance listed, at infinite dilution; xn = mol fraction of the nth substance listed. Conditions: 101.33 kPa, Liquid, Chromatography, x1 = 0.

± gives the expanded uncertainty stated by the source.

With `CC(C)OC(C)C` [diisopropyl ether] + CCCC[P+](CCCC)(CCCC)CCCC.O=S(=O)([N-]S(=O)(=O)C(F)(F)F)C(F)(F)F, the activity coefficient (358.15 K) came out at 2.88 ± 0.2; the activity coefficient (368.15 K) came out at 2.94 ± 0.2; the activity coefficient (378.15 K) came out at 3 ± 0.2; the activity coefficient (388.15 K) turned out to be 3.05 ± 0.21; the activity coefficient (398.15 K) was found to be 3.11 ± 0.21; the activity coefficient (408.15 K) turned out to be 3.17 ± 0.22.
In the case of `CCCOCCC` [dipropyl ether] + CCCC[P+](CCCC)(CCCC)CCCC.O=S(=O)([N-]S(=O)(=O)C(F)(F)F)C(F)(F)F, the activity coefficient reads like this: (358.15 K) 2.73 ± 0.19; (368.15 K) 2.78 ± 0.19; (378.15 K) 2.83 ± 0.19; (388.15 K) 2.88 ± 0.2; (398.15 K) 2.93 ± 0.2; (408.15 K) 2.98 ± 0.2.
In the case of `CCO` [ethanol] + CCCC[P+](CCCC)(CCCC)CCCC.O=S(=O)([N-]S(=O)(=O)C(F)(F)F)C(F)(F)F, the activity coefficient is 1.42 ± 0.09 (358.15 K); 1.36 ± 0.09 (368.15 K); 1.31 ± 0.09 (378.15 K); 1.26 ± 0.08 (388.15 K); 1.22 ± 0.08 (398.15 K); 1.18 ± 0.08 (408.15 K).
In the case of `CCOC(C)=O` [ethyl acetate] + CCCC[P+](CCCC)(CCCC)CCCC.O=S(=O)([N-]S(=O)(=O)C(F)(F)F)C(F)(F)F, the activity coefficient runs as follows: (358.15 K) 0.835 ± 0.054; (368.15 K) 0.869 ± 0.056; (378.15 K) 0.905 ± 0.057; (388.15 K) 0.939 ± 0.059; (398.15 K) 0.975 ± 0.061; (408.15 K) 1.01 ± 0.063.
For `CCc1ccccc1` [ethylbenzene] + CCCC[P+](CCCC)(CCCC)CCCC.O=S(=O)([N-]S(=O)(=O)C(F)(F)F)C(F)(F)F, the activity coefficient (358.15 K) was 1.49 ± 0.1; the activity coefficient (368.15 K) is 1.54 ± 0.1; the activity coefficient (378.15 K) turned out to be 1.58 ± 0.1; the activity coefficient (388.15 K) worked out at 1.63 ± 0.11; the activity coefficient (398.15 K) was found to be 1.67 ± 0.11; the activity coefficient (408.15 K) was determined as 1.71 ± 0.11.
Take `CCCCCCC` [heptane] + CCCC[P+](CCCC)(CCCC)CCCC.O=S(=O)([N-]S(=O)(=O)C(F)(F)F)C(F)(F)F: the activity coefficient by setting is: (358.15 K) 5.4 ± 0.37; (368.15 K) 5.38 ± 0.37; (378.15 K) 5.37 ± 0.37; (388.15 K) 5.35 ± 0.36; (398.15 K) 5.34 ± 0.36; (408.15 K) 5.33 ± 0.36.
Turning to `C=CCCCC` [hex-1-ene] + CCCC[P+](CCCC)(CCCC)CCCC.O=S(=O)([N-]S(=O)(=O)C(F)(F)F)C(F)(F)F, the activity coefficient amounted to 3.15 ± 0.21 (358.15 K); 3.2 ± 0.22 (368.15 K); 3.24 ± 0.22 (378.15 K); 3.28 ± 0.22 (388.15 K); 3.32 ± 0.23 (398.15 K); 3.35 ± 0.23 (408.15 K).
For the compound `CCCCCC` [hexane] + CCCC[P+](CCCC)(CCCC)CCCC.O=S(=O)([N-]S(=O)(=O)C(F)(F)F)C(F)(F)F, the activity coefficient runs as follows: (358.15 K) 4.39 ± 0.3; (368.15 K) 4.41 ± 0.3; (378.15 K) 4.44 ± 0.3; (388.15 K) 4.46 ± 0.3; (398.15 K) 4.49 ± 0.31; (408.15 K) 4.51 ± 0.31.
As for `CC(C)c1ccccc1` [isopropylbenzene] + CCCC[P+](CCCC)(CCCC)CCCC.O=S(=O)([N-]S(=O)(=O)C(F)(F)F)C(F)(F)F, the activity coefficient runs as follows: (358.15 K) 1.92 ± 0.13; (368.15 K) 1.97 ± 0.13; (378.15 K) 2.02 ± 0.14; (388.15 K) 2.07 ± 0.14; (398.15 K) 2.12 ± 0.14; (408.15 K) 2.17 ± 0.15.
For `CO` [methanol] + CCCC[P+](CCCC)(CCCC)CCCC.O=S(=O)([N-]S(=O)(=O)C(F)(F)F)C(F)(F)F, the activity coefficient runs as follows: (358.15 K) 1.28 ± 0.08; (368.15 K) 1.23 ± 0.08; (378.15 K) 1.18 ± 0.08; (388.15 K) 1.14 ± 0.07; (398.15 K) 1.1 ± 0.07; (408.15 K) 1.06 ± 0.07.
Turning to `CCCC(=O)OC` [methyl butanoate] + CCCC[P+](CCCC)(CCCC)CCCC.O=S(=O)([N-]S(=O)(=O)C(F)(F)F)C(F)(F)F, the activity coefficient (358.15 K) amounted to 0.946 ± 0.06; the activity coefficient (368.15 K) was 0.989 ± 0.062; the activity coefficient (378.15 K) is 1.03 ± 0.06; the activity coefficient (388.15 K) was found to be 1.08 ± 0.07; the activity coefficient (398.15 K) came out at 1.12 ± 0.07; the activity coefficient (408.15 K) was found to be 1.17 ± 0.07.
For the compound `COC(C)=O` [methyl ethanoate] + CCCC[P+](CCCC)(CCCC)CCCC.O=S(=O)([N-]S(=O)(=O)C(F)(F)F)C(F)(F)F, the activity coefficient is 0.753 ± 0.05 (358.15 K); 0.785 ± 0.051 (368.15 K); 0.816 ± 0.053 (378.15 K); 0.847 ± 0.054 (388.15 K); 0.878 ± 0.056 (398.15 K); 0.909 ± 0.058 (408.15 K).
Take `CCC(=O)OC` [methyl propanoate] + CCCC[P+](CCCC)(CCCC)CCCC.O=S(=O)([N-]S(=O)(=O)C(F)(F)F)C(F)(F)F: the activity coefficient reads like this: (358.15 K) 0.82 ± 0.053; (368.15 K) 0.857 ± 0.055; (378.15 K) 0.894 ± 0.057; (388.15 K) 0.931 ± 0.059; (398.15 K) 0.967 ± 0.061; (408.15 K) 1 ± 0.06.
As for `CC1CCCCC1` [methylcyclohexane] + CCCC[P+](CCCC)(CCCC)CCCC.O=S(=O)([N-]S(=O)(=O)C(F)(F)F)C(F)(F)F, the activity coefficient (358.15 K) is 3.5 ± 0.24; the activity coefficient (368.15 K) is 3.49 ± 0.24; the activity coefficient (378.15 K) was determined as 3.48 ± 0.24; the activity coefficient (388.15 K) came to 3.48 ± 0.24; the activity coefficient (398.15 K) was found to be 3.47 ± 0.24; the activity coefficient (408.15 K) was found to be 3.46 ± 0.24.
Take `CCCCCCCCC` [nonane] + CCCC[P+](CCCC)(CCCC)CCCC.O=S(=O)([N-]S(=O)(=O)C(F)(F)F)C(F)(F)F: the activity coefficient is, setting by setting: (358.15 K) 8.31 ± 0.57; (368.15 K) 8.15 ± 0.56; (378.15 K) 8.01 ± 0.55; (388.15 K) 7.87 ± 0.54; (398.15 K) 7.74 ± 0.53; (408.15 K) 7.62 ± 0.52.
With `C=CCCCCCC` [oct-1-ene] + CCCC[P+](CCCC)(CCCC)CCCC.O=S(=O)([N-]S(=O)(=O)C(F)(F)F)C(F)(F)F, the activity coefficient runs as follows: (358.15 K) 4.9 ± 0.33; (368.15 K) 4.92 ± 0.34; (378.15 K) 4.94 ± 0.34; (388.15 K) 4.96 ± 0.34; (398.15 K) 4.98 ± 0.34; (408.15 K) 5.01 ± 0.34.
For `CCCCCCCC` [octane] + CCCC[P+](CCCC)(CCCC)CCCC.O=S(=O)([N-]S(=O)(=O)C(F)(F)F)C(F)(F)F, the activity coefficient was determined as 6.69 ± 0.46 (358.15 K); 6.62 ± 0.45 (368.15 K); 6.56 ± 0.45 (378.15 K); 6.5 ± 0.44 (388.15 K); 6.44 ± 0.44 (398.15 K); 6.39 ± 0.44 (408.15 K).
`CCCCCO` [pentan-1-ol] + CCCC[P+](CCCC)(CCCC)CCCC.O=S(=O)([N-]S(=O)(=O)C(F)(F)F)C(F)(F)F: the activity coefficient turned out to be 1.81 ± 0.12 (358.15 K); 1.76 ± 0.12 (368.15 K); 1.71 ± 0.11 (378.15 K); 1.67 ± 0.11 (388.15 K); 1.63 ± 0.11 (398.15 K); 1.59 ± 0.11 (408.15 K).

The values are drawn from the NIST ThermoML archive (doi:10.1016/j.fluid.2018.07.028).
